Values of other authors in US6310089A, “Composition for the administration of a D1-agonists” (West Pharmaceutical Services Drug Delivery & Clinical …, priority 1998, dated 2001).

Experiments:
[1] = test system: dopamine D1 receptors
[2] = test system: Parkinson's disease; settings: D1 partial agonists

| SMILES | agonism at dopamine D1 receptors [1] | evaluation outcome [2] |
| --- | --- | --- |
| CN1Cc2ccccc2C2c3cccc4[nH]cc(c34)CC21 (single isomer, unassigned) [CY208.243] | partial agonists | inconclusive results |
| Oc1cc2c(cc1O)C(c1ccccc1)CNCC2 (stereo not shown) [SKF 38393] | partial agonists | inconclusive results |
